From ChEMBL document CHEMBL5136998, “Chasing a Breath of Fresh Air in Cystic Fibrosis (CF): Therapeutic Potential of Selective HDAC6 Inhibitors to Tackle Multiple Pathways in CF Pathophysiology” (J Med Chem, 2022)

Legend:
[1] = biological target: T1, Histone deacetylase 1 (Homo sapiens, UniProt Q13547); assay: Inhibition of HDAC1 (unknown origin)
[2] = biological target: T2, Protein deacetylase HDAC6 (Homo sapiens, UniProt Q9UBN7); assay: Inhibition of HDAC6 (unknown origin)
T2 sequence (Q9UBN7 whole entry): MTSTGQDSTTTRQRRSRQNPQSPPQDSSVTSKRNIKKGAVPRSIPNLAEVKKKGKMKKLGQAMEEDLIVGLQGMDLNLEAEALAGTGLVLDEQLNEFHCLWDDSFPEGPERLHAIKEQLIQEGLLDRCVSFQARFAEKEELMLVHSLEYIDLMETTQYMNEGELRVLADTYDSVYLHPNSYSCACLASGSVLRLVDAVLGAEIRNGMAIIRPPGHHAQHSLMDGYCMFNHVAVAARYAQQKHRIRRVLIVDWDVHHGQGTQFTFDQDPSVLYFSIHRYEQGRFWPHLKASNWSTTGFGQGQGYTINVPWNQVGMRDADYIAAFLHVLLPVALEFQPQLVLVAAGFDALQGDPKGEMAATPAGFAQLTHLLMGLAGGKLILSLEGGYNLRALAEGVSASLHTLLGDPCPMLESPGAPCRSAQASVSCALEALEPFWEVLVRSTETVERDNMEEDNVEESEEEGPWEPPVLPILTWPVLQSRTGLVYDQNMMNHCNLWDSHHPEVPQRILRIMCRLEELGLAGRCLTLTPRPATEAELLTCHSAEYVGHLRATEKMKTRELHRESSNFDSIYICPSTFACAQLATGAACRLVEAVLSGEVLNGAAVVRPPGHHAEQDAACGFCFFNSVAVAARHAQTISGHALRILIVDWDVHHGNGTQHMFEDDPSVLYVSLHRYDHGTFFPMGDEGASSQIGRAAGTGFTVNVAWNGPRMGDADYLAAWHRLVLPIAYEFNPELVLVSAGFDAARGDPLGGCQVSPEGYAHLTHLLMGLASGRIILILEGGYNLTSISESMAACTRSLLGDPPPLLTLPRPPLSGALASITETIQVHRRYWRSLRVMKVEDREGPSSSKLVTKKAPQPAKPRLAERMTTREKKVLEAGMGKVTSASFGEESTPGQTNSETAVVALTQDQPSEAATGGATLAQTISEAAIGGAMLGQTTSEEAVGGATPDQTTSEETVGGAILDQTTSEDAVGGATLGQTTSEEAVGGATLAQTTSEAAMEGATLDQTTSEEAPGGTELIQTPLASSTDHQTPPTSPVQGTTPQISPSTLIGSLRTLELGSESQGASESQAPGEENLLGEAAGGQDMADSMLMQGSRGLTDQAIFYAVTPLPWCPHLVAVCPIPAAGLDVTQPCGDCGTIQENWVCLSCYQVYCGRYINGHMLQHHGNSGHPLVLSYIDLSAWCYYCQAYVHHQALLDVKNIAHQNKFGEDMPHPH

[3] = biological target: T1, Histone deacetylase 1; assay: Inhibition of human recombinant HDAC1 using fluorogenic substrate
[4] = biological target: T3, Histone deacetylase 2 (Homo sapiens, UniProt Q92769)
[5] = biological target: T4, Histone deacetylase 7 (Homo sapiens, UniProt Q8WUI4); assay: Inhibition of HDAC7 (unknown origin)
T4 sequence (Q8WUI4 whole entry): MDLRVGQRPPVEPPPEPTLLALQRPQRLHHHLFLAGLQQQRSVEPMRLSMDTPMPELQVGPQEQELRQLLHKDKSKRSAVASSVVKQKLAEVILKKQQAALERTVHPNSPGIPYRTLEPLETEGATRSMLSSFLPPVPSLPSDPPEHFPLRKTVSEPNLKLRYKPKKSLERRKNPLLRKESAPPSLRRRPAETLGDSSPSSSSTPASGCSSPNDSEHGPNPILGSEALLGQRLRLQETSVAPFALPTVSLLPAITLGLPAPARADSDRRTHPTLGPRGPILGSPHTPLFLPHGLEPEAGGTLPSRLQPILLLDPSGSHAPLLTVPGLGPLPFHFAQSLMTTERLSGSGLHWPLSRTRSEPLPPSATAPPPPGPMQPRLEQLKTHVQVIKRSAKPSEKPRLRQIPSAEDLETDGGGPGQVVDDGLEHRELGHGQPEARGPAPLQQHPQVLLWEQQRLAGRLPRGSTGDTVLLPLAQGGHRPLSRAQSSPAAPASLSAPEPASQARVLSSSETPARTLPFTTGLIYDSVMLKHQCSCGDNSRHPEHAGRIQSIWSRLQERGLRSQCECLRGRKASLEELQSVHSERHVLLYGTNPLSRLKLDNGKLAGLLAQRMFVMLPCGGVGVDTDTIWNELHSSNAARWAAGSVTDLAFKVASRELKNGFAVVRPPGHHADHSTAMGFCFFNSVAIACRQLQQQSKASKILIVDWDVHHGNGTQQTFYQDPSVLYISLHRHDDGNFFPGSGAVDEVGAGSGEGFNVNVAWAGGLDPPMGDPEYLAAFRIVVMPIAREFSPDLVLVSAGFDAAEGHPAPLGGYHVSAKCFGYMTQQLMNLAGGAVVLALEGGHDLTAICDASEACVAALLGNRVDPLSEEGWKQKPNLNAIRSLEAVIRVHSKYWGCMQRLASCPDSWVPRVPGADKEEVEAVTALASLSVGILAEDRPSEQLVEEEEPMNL

[6] = biological target: T5, Protein deacetylase HDAC6 (Homo sapiens) (UniProt Q9UBN7); assay: Inhibition of HDAC6 derived from human HeLa cell nuclear extract at 100 uM incubated for 2 hrs relative to control; assay type: cell-free
T5 sequence (whole entry): T2 sequence (Q9UBN7 whole entry)

[7] = biological target: T1, Histone deacetylase 1; assay: Inhibition of HDAC1 derived from human HeLa cell nuclear extract at 100 uM incubated for 2 hrs relative to control; assay type: cell-free
[8] = biological target: T3, Histone deacetylase 2; assay: Inhibition of human HDAC2 at 100 uM relative to control
[9] = biological target: Histone deacetylase 4 (Homo sapiens) (UniProt P56524); assay: Inhibition of human HDAC4 at 100 uM relative to control
[10] = biological target: Histone deacetylase 3 (Homo sapiens, UniProt O15379); assay: Inhibition of HDAC3 (unknown origin)
[11] = biological target: T6, Histone deacetylase 8 (Homo sapiens, UniProt Q9BY41); assay: Inhibition of HDAC8 (unknown origin)
T6 sequence (Q9BY41 whole entry): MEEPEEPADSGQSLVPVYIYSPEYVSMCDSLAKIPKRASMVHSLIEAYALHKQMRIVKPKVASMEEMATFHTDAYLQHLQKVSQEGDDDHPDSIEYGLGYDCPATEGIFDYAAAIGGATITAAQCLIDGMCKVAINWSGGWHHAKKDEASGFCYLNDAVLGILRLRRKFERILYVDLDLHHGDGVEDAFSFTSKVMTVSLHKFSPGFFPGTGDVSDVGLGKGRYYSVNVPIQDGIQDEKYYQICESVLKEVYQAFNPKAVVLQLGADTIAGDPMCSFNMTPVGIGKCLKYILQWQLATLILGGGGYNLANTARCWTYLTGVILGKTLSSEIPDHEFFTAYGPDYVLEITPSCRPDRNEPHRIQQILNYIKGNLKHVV

[12] = Inhibition of human recombinant HDAC3/NcoR2 using RHKKAc as substrate

T3 sequence (Q92769 whole entry): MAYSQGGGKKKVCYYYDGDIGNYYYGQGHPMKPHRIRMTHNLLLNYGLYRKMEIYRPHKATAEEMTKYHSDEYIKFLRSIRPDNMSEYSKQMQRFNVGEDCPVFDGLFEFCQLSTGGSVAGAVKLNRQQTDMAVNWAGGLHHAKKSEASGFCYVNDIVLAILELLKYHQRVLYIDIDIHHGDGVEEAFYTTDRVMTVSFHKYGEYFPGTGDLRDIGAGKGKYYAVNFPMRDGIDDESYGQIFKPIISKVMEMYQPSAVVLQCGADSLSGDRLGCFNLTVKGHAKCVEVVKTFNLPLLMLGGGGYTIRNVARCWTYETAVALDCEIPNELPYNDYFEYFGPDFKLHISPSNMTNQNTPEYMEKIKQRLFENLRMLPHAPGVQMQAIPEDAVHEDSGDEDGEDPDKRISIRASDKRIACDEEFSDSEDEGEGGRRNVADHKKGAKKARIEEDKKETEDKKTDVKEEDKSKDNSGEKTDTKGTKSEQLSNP
T1 sequence (Q13547 whole entry): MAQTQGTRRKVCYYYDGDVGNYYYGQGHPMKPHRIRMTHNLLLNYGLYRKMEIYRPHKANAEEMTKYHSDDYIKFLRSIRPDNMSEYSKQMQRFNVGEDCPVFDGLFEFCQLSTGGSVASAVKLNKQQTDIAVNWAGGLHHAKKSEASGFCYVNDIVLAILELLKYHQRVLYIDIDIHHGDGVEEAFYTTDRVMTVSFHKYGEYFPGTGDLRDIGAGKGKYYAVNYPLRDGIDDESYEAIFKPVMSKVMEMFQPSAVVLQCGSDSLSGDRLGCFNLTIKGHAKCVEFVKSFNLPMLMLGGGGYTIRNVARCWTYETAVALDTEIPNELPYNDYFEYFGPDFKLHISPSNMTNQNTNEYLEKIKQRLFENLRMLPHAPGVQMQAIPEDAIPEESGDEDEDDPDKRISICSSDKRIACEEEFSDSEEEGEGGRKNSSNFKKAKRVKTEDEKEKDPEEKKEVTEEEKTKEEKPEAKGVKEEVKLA
Chain of Histone deacetylase 4 (Homo sapiens) (P56524 whole entry): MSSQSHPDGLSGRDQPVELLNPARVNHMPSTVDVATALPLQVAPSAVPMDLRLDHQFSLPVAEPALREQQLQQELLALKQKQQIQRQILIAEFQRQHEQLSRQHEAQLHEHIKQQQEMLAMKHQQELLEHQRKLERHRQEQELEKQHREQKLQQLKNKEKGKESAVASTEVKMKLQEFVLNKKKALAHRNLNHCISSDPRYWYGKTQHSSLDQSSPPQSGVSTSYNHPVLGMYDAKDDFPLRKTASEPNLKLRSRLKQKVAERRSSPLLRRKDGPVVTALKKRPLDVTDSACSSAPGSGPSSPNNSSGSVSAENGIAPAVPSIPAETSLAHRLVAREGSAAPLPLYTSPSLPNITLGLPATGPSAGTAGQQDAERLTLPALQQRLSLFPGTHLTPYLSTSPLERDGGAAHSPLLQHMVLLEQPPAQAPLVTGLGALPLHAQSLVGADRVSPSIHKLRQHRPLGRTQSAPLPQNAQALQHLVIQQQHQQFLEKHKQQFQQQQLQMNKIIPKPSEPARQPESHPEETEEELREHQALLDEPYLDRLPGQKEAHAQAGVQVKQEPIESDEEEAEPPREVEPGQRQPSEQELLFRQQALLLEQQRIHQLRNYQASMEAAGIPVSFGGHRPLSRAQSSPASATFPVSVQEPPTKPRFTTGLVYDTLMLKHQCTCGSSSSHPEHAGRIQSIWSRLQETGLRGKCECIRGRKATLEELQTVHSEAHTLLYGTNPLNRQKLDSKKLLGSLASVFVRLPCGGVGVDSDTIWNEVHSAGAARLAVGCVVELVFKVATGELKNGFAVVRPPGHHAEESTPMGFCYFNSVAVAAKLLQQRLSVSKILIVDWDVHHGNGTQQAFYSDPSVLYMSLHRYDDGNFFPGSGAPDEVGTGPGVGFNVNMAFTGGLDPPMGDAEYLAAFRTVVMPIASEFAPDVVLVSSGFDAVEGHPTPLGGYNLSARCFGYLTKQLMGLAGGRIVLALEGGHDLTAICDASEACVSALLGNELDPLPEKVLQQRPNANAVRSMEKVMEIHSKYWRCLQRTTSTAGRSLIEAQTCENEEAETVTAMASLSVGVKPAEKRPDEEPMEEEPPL
Chain of Histone deacetylase 3 (O15379 whole entry): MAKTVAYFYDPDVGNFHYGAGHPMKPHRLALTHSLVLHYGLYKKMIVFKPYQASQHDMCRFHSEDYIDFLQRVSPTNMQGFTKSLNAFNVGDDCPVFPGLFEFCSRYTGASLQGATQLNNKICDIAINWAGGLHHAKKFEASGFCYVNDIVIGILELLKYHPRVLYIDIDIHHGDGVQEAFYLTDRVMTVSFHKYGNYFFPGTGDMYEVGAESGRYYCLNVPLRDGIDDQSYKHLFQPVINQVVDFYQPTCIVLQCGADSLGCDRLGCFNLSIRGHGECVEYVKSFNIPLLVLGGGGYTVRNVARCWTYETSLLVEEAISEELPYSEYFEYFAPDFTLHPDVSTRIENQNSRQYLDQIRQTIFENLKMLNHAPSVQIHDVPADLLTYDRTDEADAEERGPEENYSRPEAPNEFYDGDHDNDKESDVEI

**Q.** What does the source list for `C[C@@H]1CN(Cc2ccc(C(=O)NO)cc2)C[C@H](C)N1Cc1cccc(Cl)c1`?
**A.** IC50 [1]: 11.4 µM; IC50 [2]: 0.041 µM

**Q.** For `O=C(O)CCCc1ccccc1` [SODIUM PHENYLBUTYRATE], which IC50 [3] is on record?
**A.** The IC50 was 162 µM.

**Q.** Which results are given for `CCCC(=O)O` [BUTYRIC ACID]?
**A.** IC50 [1]: 300 µM; IC50 [4]: 400 µM; IC50 [5]: 300 µM

**Q.** Which inhibition [6] does the source give for `Oc1ccc(/C=C/c2cc(O)cc(O)c2)cc1` here?
**A.** The inhibition was 32%.

**Q.** What about the inhibition [7] of the same molecule?
**A.** Its inhibition is 39%.

**Q.** What about the inhibition [8] of the same molecule?
**A.** Its inhibition is 21%.

**Q.** And the inhibition [9]?
**A.** The inhibition was 23%.

**Q.** Which IC50 [4] does the source give for `CC(C)(C)OC(=O)Nc1cccc(C(=O)/C=C/c2ccc(/C=C/C(=O)NO)cc2)c1` here?
**A.** The IC50 was 2.1 µM.

**Q.** What about the IC50 [2] of the same molecule?
**A.** Its IC50 is 0.011 µM.

**Q.** And the IC50 [10]?
**A.** Its IC50 is 10.8 µM.

**Q.** And the IC50 [11]?
**A.** Its IC50 is 1.2 µM.

**Q.** For `CN1CCc2c(c3ccccc3n2Cc2ccc(C(=O)NO)cc2)C1` [TUBASTATIN A], which IC50 [12] is on record?
**A.** The IC50 was over 30 µM.
